SMILES strings stand for the structures.

For data set [1] the following is noted: cited from earlier work.
Data set [2] concerns Huh-7 cells. As to the kind of experiment: Oil Red O and LipidTOX staining of neutral lipids. It is filed as cell-based, human. The following applies: Huh-7, chronic exposure 7 days; silibinin 10 μmol/L as co-treatment with lorlatinib. How it is done: We first employed a conventional index of fatty liver disease––the intracellular accumulation of neutral lipids (steatosis)––to confirm the ability of lorlatinib to trigger hypertriglyceridemia and hypercholesteremia.
(§1) For assessment of neutral lipid formation, cells were washed in PBS, fixed with 4% paraformaldehyde for 30 min, washed in distilled water, and then briefly incubated in 60% isopropanol. Following equilibration, cells were stained with a working solution (60%) of Oil Red O for 20 min. An Oil Red O stock solution was prepared by dissolving 0.35% w/v Oil Red O in 100 mL 100% isopropanol. HCS LipidTOX™ Green Neutral Lipid Stain (Invitrogen; Cat. #H34475) was employed as a second staining cocktail for visualization of intracellular neutral lipids. Formaldehyde fixation and preparing/using the labeling solution was carried out as per the manufacturer’s instructions.

Data set [3] relates to HepG2 cells. As to the kind of experiment: Oil Red O staining of neutral lipids. Type of data set: cell-based, human. To be noted: HepG2, acute exposure 48 h; silibinin 100 μmol/L as co-treatment with lorlatinib. Here is the method: To confirm these findings, we employed an independent in vitro model of fatty liver disease involving non-tumorigenic HepG2 cells, which are routinely employed as an inducible fatty liver cell model to screen for therapeutic drugs to eliminate lipid accumulation.
as §1

For data set [4] the following is noted: cited from earlier work. The source holds these as a separate data set.
The mark [5] stands for this setting: single 100 mg oral dose ref 46, 47.
[6] abbreviates: pooled safety analysis (n = 295) ref 14, 15.

`C[C@H]1Oc2cc(cnc2N)-c2c(nn(C)c2C#N)CN(C)C(=O)c2ccc(F)cc21` [lorlatinib, (10R)-7-amino-12-fluoro-2,10,16-trimethyl-15-oxo-10,15,16,17-tetrahydro-2H-8,4-(metheno)pyrazolo [4,3-h][2,5,11]-benzoxadiazacyclotetradecine-3-carbonitrile]: in data set [1] (human, in vivo), the “Fraction metabolized during first-pass hepatic or pre-systemic metabolism” value is 12% and the Hepatic extraction ratio is on record as under 30%. In data set [1] (setting [5]), the Peak plasma concentration was over 2 µmol/L and the “Time to peak plasma concentration” value was 0.5 to 4 h. For the same compound, the “Accumulation of neutral lipids (lipid droplets)” value in data set [2] is reported as “accumulated large amounts of lipid droplet-like neutral lipids”. In addition, the “Accumulation of neutral lipids (lipid droplets)” value in data set [3] was “greater number of larger lipid droplets than untreated cells”. The “Incidence of hypercholesteremia and hypertriglyceridemia” value in data set [4] (lung cancer patients) is over 80%. Further, in data set [4] (patients), the “Hyperlipidemia, median time to onset” value is given as 15 days. The “Frequency of grade 3 or 4 elevations in total cholesterol and triglycerides (both)” value in data set [4] (phase 2 study B7461001 (NCT01970865) ref 2) was 16%. In data set [4] (setting [6]), the Incidence of hypercholesteremia is on record as 61% and the Incidence of hypertriglyceridemia is listed as 82%.

These data come from paper PMC9456400 (International Journal of Molecular Sciences, 2022).
